# From PMC5848165 (Toxins, 2018)
# Residues, ends and D or L forms follow the SMILES beside them.
# Experiments:
# [1] = test system: chimera #1, Nav1.5 (Nav1.7-DII-S3-S4); assay: Whole-cell patch clamp, chimera #1 in HEK293 cells; assay type: cell-based, rat Nav1.5 / human Nav1.7; settings: −10 mV from −80 mV
# Description: Many animal toxins alter activation or inactivation of sodium channels by binding to the S3–S4 regions of channels, which are probably the external linkers or voltage sensors of sodium channels. α-Scorpion toxins slow down fast-inactivation of sodium channels by binding to the extracellular linker loop of DIVS3-S4 (neurotoxin site 3). Meanwhile, β-scorpion toxins that interact with DIIS3-S4 linker enhance the activation of sodium channels by trapping DII voltage sensor in an activated state. As Nav1.5 channel is resistant to the inhibition of JZTX-34, we investigated the binding site of JZTX-34 to Nav1.7 by constructing chimeric channels between Nav1.5 and Nav1.7. […]
# The HEK293T cells were maintained in standard culture conditions (5% CO2 and 37 °C). […] After culturing for 36–72 h, cells with obvious green fluorescence were selected for sodium currents recordings the internal solution for sodium currents recording that contained (in mM) 140 CsF, 5 NaCl, 10 HEPES, 3 Na2-ATP, and 10 EGTA. […]
# Sodium currents were recorded from DRG, HEK293, and ND cells by the whole-cell patch-clamp technique at 25 °C. […] Experiments date were acquired from whole-cell Axon 700B patch clamp amplifier (Molecular Devices, Sunnyvale, CA, USA) and analyzed by the program Clampfit10.0 (Molecular Devices, Sunnyvale, CA, USA) and Sigmaplot. […]
# [2] = test system: formalin-induced paw licking response in mice; assay: Formalin-induced paw licking; assay type: in vivo, mouse (Kunming); settings: for paw licking time, early phase: control 145.5 s; for paw licking time, early phase / paw licking time, late phase: n = 6; for paw licking time, late phase: control 414.5 s
# Method: Since Nav1.7 plays an important role in pain, the analgesic effects of JZTX-34 were examined in three animal models (formalin-induced paw licking, acetic acid-induced writhing, and hot plate). Intraplantar injection of formalin causes pain and can be divided into two phases. The early phase was neurogenic pain and usually occurred within […]), and the late phase was inflammatory pain lasting from 15 to 30 min).
# Figure 6 Effects of JZTX-34 on pain. (A) Effects of JZTX-34 on the early phase (0–5 min) and late phase (15–30 min) of formalin-induced paw licking response in mice. (B) Effects of JZTX-34 on the acetic acid-induced writhing response in mice. (C)Effects of JZTX-34 on the hot plate test in mice.
# The synthesized JZTX-34 was obtained according to the procedure as previously described. […] Rats (Sprague-Dawley) and Kunming mice were maintained in the Laboratory of Protein Chemistry of Hunan Normal University. All of the experimental involving animals were approved by the Animal Care and Use Committee of Hunan Normal University (2016-273, 13 October 2016).
# Formalin test was performed according to the method described previously. […] After test samples were intraperitoneally (i.p.) injected, 5% formalin (20 μL) was injected to the plantar surface of right hind paw. The time spent licking the injected paw was counted every 5 min. Phase I was defined as 0–10 min, and Phase II defined as […].
# Data from Axon 700B patch clamp were analyzed by Clampfit10.0 (Molecular Devices, Sunnyvale, CA, USA). Dose-response curves were fitted by the Hill logistic equation: y = 1 − (1 − fmax)/[…]. In this equation, n stands an empirical Hill coefficient and fmax is the fraction of current resistant to inhibition at high toxin (Tx) concentration. The G-V curves were obtained by calculating the conductance (G) at each voltage (V) using the equation G = I/(V1 − Vrev), with Vrev being the reversal potential determined for each cell individually. G-V curves were fitted using a Boltzmann equation—y = 1/(1 + exp[(Va − V)/κ])—in which Va, V, and κ represent midpoint voltage of kinetics, test potential, and slope factor, respectively. […] Statistical significance was calculated using Student’s t-test and was defined as p < 0.05.
compound,measurement,setting,value
"CC(C)C[C@@H]1NC(=O)[C@H](Cc2c[nH]c3ccccc23)NC(=O)[C@H](CCC(=O)O)NC(=O)[C@H](CCCNC(=N)N)NC(=O)[C@@H](NC(=O)[C@H](C)N)CSSC[C@@H]2NC(=O)[C@@H]3CSSC[C@@H](C(=O)N[C@H](C(=O)N[C@@H](Cc4c[nH]c5ccccc45)C(=O)N[C@@H](CC(=O)O)C(=O)N[C@@H](Cc4c[nH]c5ccccc45)C(=O)N[C@H](C(=O)N[C@H](C(=O)O)C(C)C)[C@@H](C)O)C(C)C)NC(=O)[C@H](Cc4c[nH]cn4)NC(=O)[C@H](Cc4ccc(O)cc4)NC(=O)[C@@H]4CCCN4C(=O)[C@H](Cc4c[nH]c5ccccc45)NC(=O)[C@H](CCCCN)NC(=O)[C@H](CCCCN)NC(=O)[C@H](CCCNC(=N)N)NC(=O)[C@H](CSSC[C@H](NC(=O)CNC(=O)CNC1=O)C(=O)N[C@@H](CO)C(=O)N[C@@H](CCCCN)C(=O)N[C@@H](CC(=O)O)C(=O)N[C@@H](C)C(=O)N[C@@H](CC(=O)O)C(=O)N3)NC(=O)[C@H](CCC(=O)O)NC(=O)[C@H](CC(C)C)NC(=O)[C@H](Cc1c[nH]cn1)NC(=O)[C@H](C)NC2=O [JZTX-34, Jingzhaotoxin-34] (HELM PEPTIDE1{A.C.R.E.W.L.G.G.C.S.K.D.A.D.C.C.A.H.L.E.C.R.K.K.W.P.Y.H.C.V.W.D.W.T.V}$PEPTIDE1,PEPTIDE1,2:R3-16:R3|PEPTIDE1,PEPTIDE1,9:R3-21:R3|PEPTIDE1,PEPTIDE1,15:R3-29:R3$$$V2.0; N-terminus and C-terminus assumed)",inhibition of chimera #1 currents,[1]; 1 µM,47.6 ± 3.6%
same,inhibition of chimera #1 currents,[1]; 10 µM,79.5 ± 2.8%
same,"paw licking time, early phase",[2]; 0.5 mg/kg i.p.,125.5 s
same,"paw licking time, late phase",[2]; 0.5 mg/kg i.p.,282.2 s
same,"paw licking time, early phase",[2]; 1 mg/kg i.p.,50.1 s
same,"paw licking time, late phase",[2]; 1 mg/kg i.p.,263.6 s
same,"paw licking time, early phase",[2]; 2 mg/kg i.p.,34.7 s
same,"paw licking time, late phase",[2]; 2 mg/kg i.p.,148.0 s
same,"formalin first phase, efficacy vs morphine",[2]; JZTX-34 2 mg/kg vs morphine 5 mg/kg,equipotent with morphine (5 mg/kg)
